In patent publication US20260217701A1, “SELECTIVE BET INHIBITORS AND USES THEREOF” (Tay Therapeutics Limited, priority 2022, published 2026):
“And” between values parts separate entries of the source, which are not always exact repeats. Identical values can stand only once. Like-named read-outs stand apart in the source and are kept apart here.

Tests used:
lupus = test: SLE (lupus) model: proteinuria scores; format: in vivo, MRL/MpJ-Faslpr mice; details: for End proteinuria score ± SEM: end of study (Week 19)
Protocol: Female MRL/MpJ-Faslpr mice (The Jackson Laboratory) were used to assess the efficacy of Compound A in treating lupus. Starting when animals were 10 weeks of age, protein concentration in urine was measured using urine dipsticks.
At the start of the study, each group in the study had two animals that were 9 weeks old, and all others were 10 weeks old. Dosing of all animals with the test compounds began when the older animals were 11 weeks old. […] […] Dosing was at a consistent time each dosing day throughout the study.
Compound A may be formulated as illustrated in Experimental Method A (see Table 2E.). […] A stock solution of Compound A in DMSO (stock solution concentration of Compound A of 40 mg/mL) was prepared and aliquots for weekly preparations were frozen at −20° C. On each preparation day, a stock solution aliquot was thawed and diluted with other vehicle components to the desired concentration. Formulated Compound A and vehicle were at room temperature for dosing.
The study began when the older animals were 11 weeks old, and concluded when the older animals were 19 weeks old. Body weight was recorded once a week, with the exception of two weight measurements taken the first week of the study (when the older animals were 11 weeks old). Proteinuria was measured in the urine of animals with urine dipsticks once a week, starting when the older animals were 10 weeks old. […] Blood samples were taken retro-orbitally at the start of the study to establish a baseline (15 animals, 3 per group), and when the older animals were 16 weeks (all animals) and when animals were 19 weeks (all animals) at the conclusion of the study. Blood urea nitrogen (BUN) was measured in all animals at study termination in blood samples. After blood collection, animals were euthanized, perfused with PBS, and the left kidneys were collected and weighed and fixed in 10% buffered formalin. Left kidneys were then processed to a formalin-fixed, paraffin-embedded (FFPE) block, and histology was analyzed in Periodic Acid-Schiff-stained sections (1 section per slide), using the criteria described in Alperovich et al., Lupus, 16:18-24 (2007). Right kidneys were weighed and snap-frozen at −80° C. Spleens were also collected and weighed. SLE in animals treated with a BET inhibitor and vehicle.

IL-22 = IL-22 release from activated human PBMCs (ELISA); format: cell-based; details: for Percent Inhibition Relative to Control (IL-22): Donors 1-6, two values per donor; for IC50: Homo sapiens, PBMC
Protocol: Human PBMCs used to analyze inhibition of CXCL10 were collected from 8 donors, PBMCs used to analyze inhibition of IL-17A were collected from 7 donors, and PBMCs used to analyze inhibition of IL-22 were collected from 6 donors. Compounds were serially diluted in 10 mM DMSO and further diluted in assay media to 100× the required final concentration, of which 2 μL was added to the specified well. […] The cell culture supernatant was collected and levels of IL-17A and IL-22 in the supernatant were assessed by ELISA (Invitrogen).

How did the “Proteinuria levels, lower than vehicle-treated group” value (lupus; 10 mg/kg, Week 19) turn out when `Cn1cc(-c2ccccc2)c(-c2cn(C)c(=O)c3[nH]c(-c4cnn(C(F)(F)F)c4)cc23)cc1=O` [Compound A, 6-methyl-4-(1-methyl-2-oxo-5-phenyl-1,2-dihydropyridin-4-yl)-2-(1-(trifluoromethyl)-1H-pyrazol-4-yl)-1,6-dihydro-7H-pyrrolo[2,3-c]pyridin-7-one] was run?
Its value is “about 74.8%”.

What about the Proteinuria levels (lupus; 1, 3, 10 mg/kg) of the same molecule?
The Proteinuria levels was “reduced proteinuria levels in a dose-dependent manner”.

What about the Mean proteinuria score (lupus; Compound A 1 mg/kg PO QD, Week 10) of the same molecule?
The Mean proteinuria score was 1.96.

And the Mean proteinuria score (lupus; Compound A 1 mg/kg PO QD, Week 11)?
Its Mean proteinuria score is 1.96 +.

What about the Mean proteinuria score (lupus; Compound A 1 mg/kg PO QD, Week 12) of the same molecule?
Its Mean proteinuria score is 2.29.

And the Mean proteinuria score (lupus; Compound A 1 mg/kg PO QD, Week 13)?
The Mean proteinuria score was 2.57.

What about the Mean proteinuria score (lupus; Compound A 1 mg/kg PO QD, Week 14) of the same molecule?
The Mean proteinuria score was 2.79.

And the Mean proteinuria score (lupus; Compound A 1 mg/kg PO QD, Week 15)?
Its Mean proteinuria score is 3.07.

And the Mean proteinuria score (lupus; Compound A 1 mg/kg PO QD, Week 16)?
Its Mean proteinuria score is 2.82.

What about the Mean proteinuria score (lupus; Compound A 1 mg/kg PO QD, Week 17) of the same molecule?
The Mean proteinuria score was 3.07.

And the Mean proteinuria score (lupus; Compound A 1 mg/kg PO QD, Week 18)?
The Mean proteinuria score was 3.11±.

And the Mean proteinuria score (lupus; Compound A 1 mg/kg PO QD, Week 19)?
Its Mean proteinuria score is 3.36.

And the “End proteinuria score ± SEM” value (lupus; Compound A 1 mg/kg PO QD)?
Its value is 3.36 ± 0.19.

What about the Mean proteinuria score (lupus; Compound A 3 mg/kg PO QD, Week 10) of the same molecule?
Its Mean proteinuria score is 1.96.

What about the Mean proteinuria score (lupus; Compound A 3 mg/kg PO QD, Week 11) of the same molecule?
The Mean proteinuria score was 1.96.

What about the Mean proteinuria score (lupus; Compound A 3 mg/kg PO QD, Week 12) of the same molecule?
The Mean proteinuria score was 2.04.

And the Mean proteinuria score (lupus; Compound A 3 mg/kg PO QD, Week 13)?
The Mean proteinuria score was 2.50.

And the Mean proteinuria score (lupus; Compound A 3 mg/kg PO QD, Week 14)?
The Mean proteinuria score was 2.46.

What about the Mean proteinuria score (lupus; Compound A 3 mg/kg PO QD, Week 15) of the same molecule?
Its Mean proteinuria score is 2.85.

What about the Mean proteinuria score (lupus; Compound A 3 mg/kg PO QD, Week 16) of the same molecule?
The Mean proteinuria score was 2.65.

What about the Mean proteinuria score (lupus; Compound A 3 mg/kg PO QD, Week 17) of the same molecule?
The Mean proteinuria score was 2.77.

What about the Mean proteinuria score (lupus; Compound A 3 mg/kg PO QD, Week 18) of the same molecule?
The Mean proteinuria score was 2.73.

And the Mean proteinuria score (lupus; Compound A 3 mg/kg PO QD, Week 19)?
The Mean proteinuria score was 3.04.

What about the “End proteinuria score ± SEM” value (lupus; Compound A 3 mg/kg PO QD) of the same molecule?
Its value is 3.04 ± 0.24.

What about the Mean proteinuria score (lupus; Compound A 10 mg/kg PO QD, Week 10) of the same molecule?
Its Mean proteinuria score is 1.96.

What about the Mean proteinuria score (lupus; Compound A 10 mg/kg PO QD, Week 11) of the same molecule?
Its Mean proteinuria score is 1.96.

And the Mean proteinuria score (lupus; Compound A 10 mg/kg PO QD, Week 12)?
Its Mean proteinuria score is 2.04.

What about the Mean proteinuria score (lupus; Compound A 10 mg/kg PO QD, Week 13) of the same molecule?
Its Mean proteinuria score is 2.21.

What about the Mean proteinuria score (lupus; Compound A 10 mg/kg PO QD, Week 14) of the same molecule?
The Mean proteinuria score was 2.07.

And the Mean proteinuria score (lupus; Compound A 10 mg/kg PO QD, Week 15)?
Its Mean proteinuria score is 2.43.

And the Mean proteinuria score (lupus; Compound A 10 mg/kg PO QD, Week 16)?
Its Mean proteinuria score is 2.32.

And the Mean proteinuria score (lupus; Compound A 10 mg/kg PO QD, Week 17)?
Its Mean proteinuria score is 2.32.

And the Mean proteinuria score (lupus; Compound A 10 mg/kg PO QD, Week 18)?
The Mean proteinuria score was 2.00.

And the Mean proteinuria score (lupus; Compound A 10 mg/kg PO QD, Week 19)?
Its Mean proteinuria score is 2.32.

What about the “End proteinuria score ± SEM” value (lupus; Compound A 10 mg/kg PO QD) of the same molecule?
Its value is 2.32 ± 0.15.

What about the “potency against IL-22 relative to CXCL10” value (IL-22) of the same molecule?
Its value is “about 17,000 fold”.

What about the “Biomarker selectivity (IL-22 vs. CXCL 10)” value (IL-22; Average preliminary biomarker assay) of the same molecule?
Its value is 5178 Fold.

What about the “Percent Inhibition Relative to Control (IL-22)” value (IL-22; Compound Conc. 0.000137174 μM) of the same molecule?
The value was 36.49% and 20.77% and 20.31% and 15% and 13.22% and 40.62% and 42.44% and −18.99% and 2.10% and 20.38% and 35.83% and 13.68%.

What about the “Percent Inhibition Relative to Control (IL-22)” value (IL-22; Compound Conc. 0.000411523 μM) of the same molecule?
Its value is 27.24% and 13.07% and 35.55% and 45.22% and 56.28% and 11.33* Percent and 49.71% and 35.72% and 28.88% and 47.8% and 62.34% and 36.26%.

What about the “Percent Inhibition Relative to Control (IL-22)” value (IL-22; Compound Conc. 0.001234568 μM) of the same molecule?
The value was 58.12% and 42.53% and 46.04% and 55.94% and 57.50% and 65.37% and 75.65% and 47.36% and 70.12% and 62.59% and 69.46% and 42.31%.

And the “Percent Inhibition Relative to Control (IL-22)” value (IL-22; Compound Conc. 0.003703704 μM)?
Its value is 71.96% and 57.94% and 67.89% and 62.44%.

What about the “Percent Inhibition Relative to Control (IL-22)” value (IL-22; Compound Conc. 0.011111111 μM) of the same molecule?
Its value is 52.73% and 45.71% and 72.33% and 61.13% and 48.74% and 54.26% and 71.04% and 74.68% and 76.83% and 75.01% and 72.99% and 61.33%.

And the “Percent Inhibition Relative to Control (IL-22)” value (IL-22; Compound Conc. 0.033333333 μM)?
Its value is 59.22% and 62.46% and 72.37% and 75.81% and 66.02% and 52.09% and 58.24% and 79.61% and 59.59% and 77.99% and 81.27% and 61.98%.

What about the “Percent Inhibition Relative to Control (IL-22)” value (IL-22; Compound Conc. 0.1 μM) of the same molecule?
Its value is 72.76% and 68.86% and 83.13% and 82.57% and 67.92% and 74.39% and 71.46% and 84.71% and 87.61% and 80.76% and 81.88% and 60.98%.

What about the “Percent Inhibition Relative to Control (IL-22)” value (IL-22; Compound Conc. 1.52416E−05 μM) of the same molecule?
The value was −4.73% and 3.62% and −2.47% and −6.99% and −5.22% and 11.96% and 21.53% and −30.35% and −52.69% and −14.1* Percent and −16.32* Percent and −0.25%.

What about the “Percent Inhibition Relative to Control (IL-22)” value (IL-22; Compound Conc. 4.57247E−05 μM) of the same molecule?
The value was −1.30% and −19.44% and 7.09% and −4.72% and −19.37% and 12.73% and 33.63% and −8.80% and 13.17% and 6.1% and 16.75% and −8.17%.

What about the IC50 (IL-22; Average preliminary biomarker assay, read-out: IL-22 IC50 Mean) of the same molecule?
The IC50 was 0.2 nM.

And the IC50 (IL-22; Preliminary biomarker assay, Test Subject 1, read-out: IL-22 IC50)?
The IC50 was 0.2 nM.
